In ChEMBL document CHEMBL3272153, “Synthetic inhibitors of Escherichia coli, calf thymus, and Ehrlich ascites tumor thymidylate synthetase” (J Med Chem, 1976):

Tests used:
[1] = Competitive inhibition of Escherichia coli thymidylate synthetase using 5-[3H]-dUMP as substrate after 7 mins by scintillation counting analysis
[2] = Competitive inhibition of calf thymus thymidylate synthetase using 5-[3H]-dUMP as substrate after 10 mins by scintillation counting analysis; set-up: species or system Bos taurus
[3] = Competitive inhibition of thymidylate synthetase in mouse Ehrlich ascites tumor cells using 5-[3H]-dUMP as substrate after 7 mins by scintillation counting analysis
[4] = organism: Bos taurus; test: Irreversible inactivation of calf thymus thymidylate synthetase assessed as enzyme activity using dUMP as substrate at 0.33 mM preincubated for 3 hrs in absence of cofactor tetrahydrofolate
[5] = organism: Bos taurus; test: Irreversible inactivation of calf thymus thymidylate synthetase assessed as enzyme activity using dUMP as substrate at 0.33 mM preincubated for 3 hrs in presence of cofactor tetrahydrofolate
[6] = organism: Mus musculus; test: Irreversible inactivation of thymidylate synthetase in mouse Ehrlich ascites tumor cells assessed as enzyme activity using dUMP as substrate at 0.33 mM preincubated for 3 hrs in absence of cofactor tetrahydrofolate
[7] = organism: Mus musculus; test: Irreversible inactivation of thymidylate synthetase in mouse Ehrlich ascites tumor cells assessed as enzyme activity using dUMP as substrate at 0.33 mM preincubated for 3 hrs in presence of cofactor tetrahydrofolate
[8] = organism: Bos taurus; test: Ratio of Ki to Km for calf thymus thymidylate synthetase
[9] = organism: Mus musculus; test: Ratio of Ki to Km for thymidylate synthetase in mouse Ehrlich ascites tumor cells
[10] = Selectivity ratio of Ki/Km for calf thymus thymidylate synthetase to Ki/Km for thymidylate synthetase in mouse Ehrlich ascites tumor cells
[11] = Retardation factor of the compound; format: physicochemical
[12] = Inhibition of Escherichia coli thymidylate synthetase using 5-[3H]-dUMP as substrate
[13] = Non-competitive inhibition of calf thymus thymidylate synthetase using 5-[3H]-dUMP as substrate after 10 mins by scintillation counting analysis; set-up: species or system Bos taurus

Activity [4] [%] | Activity [5] [%] | Activity [6] [%] | Activity [7] [%] | Ki/Km [8] | Ki/Km [9] | Selectivity ratio [10] | Rf [11] | Structure (SMILES) | Ki [1] [µM] | Ki [2] [µM] | Ki [3] [µM] | Ki [12] [µM] | Ki [13] [µM]
104 | 85 | 94 | 120 | 3.6 | 3.5 | 1 | 0.45 | O=c1[nH]c(=O)n([C@H]2C[C@H](O)[C@@H](COP(=O)(O)O)O2)cc1CC1CO1 (stereo not given in full) | 25 | 33 | 14 | – | –
– | – | – | – | 14 | 10 | 1.4 | 0.55 | C=CCc1cn([C@H]2C[C@H](O)[C@@H](COP(=O)(O)O)O2)c(=O)[nH]c1=O | 135 | 130 | 40 | – | –
– | – | – | – | 8.1 | 5.5 | 1.5 | – | CC(=O)c1cn([C@H]2C[C@H](O)[C@@H](COP(=O)(O)O)O2)c(=O)[nH]c1=O | 64 | 73 | 22 | – | –
– | – | – | – | 3.5 | 4.7 | 0.7 | – | COCc1cn([C@H]2C[C@H](O)[C@@H](COP(=O)(O)O)O2)c(=O)[nH]c1=O | 42 | 32 | 19 | – | –
– | – | – | – | 4.6 | 2.2 | 2 | – | O=c1[nH]c(=O)n([C@H]2C[C@H](O)[C@@H](COP(=O)(O)O)O2)cc1COCc1ccccc1 | 25 | 42 | 9 | – | –
– | – | – | – | 0.44 | 0.15 | 3 | – | O=c1[nH]c(=O)n([C@H]2C[C@H](O)[C@@H](COP(=O)(O)O)O2)cc1CO | 4 | 4 | 0.6 | 10.5 | –
77 | 83 | 60 | 87 | 2.3 | 1.2 | 1.9 | – | [N-]=[N+]=NCc1cn([C@H]2C[C@H](O)[C@@H](COP(=O)(O)O)O2)c(=O)[nH]c1=O | 18 | 21 | 5 | – | –
– | – | – | – | 0.01 | 0.02 | 0.5 | – | O=Cc1cn([C@H]2C[C@H](O)[C@@H](COP(=O)(O)O)O2)c(=O)[nH]c1=O | 0.1 | – | 0.08 | 0.013 | 0.09
